Data: PubChem BioAssay AID1745844 (Carcinogenic Potency Database (CPDB), 2022)
Activity calls are given as the source filed them. No rule for the calls is given here.

Tested on: rodent lifetime carcinogenesis bioassay, tumor incidence TD50
Experiment: carcinogenic potency in animals, long-term in vivo studies, CPDB compilation (AID 1745844)

Q: What does the source list for Cc1ccc(N=Nc2c(O)ccc3ccccc23)c([N+](=O)[O-])c1?
A: TD50 (mouse, strain B6C3F1, females, in feed, site: any site (literature study), lesion: several types, types named in the paper, dosed 103 weeks, study length 104 weeks): 13800 mg/kg/day; TD50 (mouse, strain B6C3F1, females, in feed, site: liver, lesion: hepatocellular adenoma + hepatocellular carcinoma + neoplastic nodule, dosed 103 weeks, study length 104 weeks): 204000 mg/kg/day; TD50 (mouse, strain B6C3F1, females, in feed, site: lung, lesion: alveolar/bronchiolar adenoma + alveolar/bronchiolar carcinoma, dosed 103 weeks, study length 104 weeks): 252000 mg/kg/day; TD50 (mouse, strain B6C3F1, females, in feed, site: lymph node, lesion: axillary histiocytic sarcoma + deep cervical, histiocytic sarcoma + iliac histiocytic sarcoma + inguinal histiocytic sarcoma + r, dosed 103 weeks, study length 104 weeks): 104000 mg/kg/day (inactive); TD50 (mouse, strain B6C3F1, males, in feed, site: all sites, lesion: malignant lymphoma, histiocytic type + malignant lymphoma, mixed type, dosed 103 weeks, study length 104 weeks): 22700 mg/kg/day; TD50 (mouse, strain B6C3F1, males, in feed, site: any site (literature study), lesion: several types, types named in the paper, dosed 103 weeks, study length 104 weeks): 9420 mg/kg/day; TD50 (mouse, strain B6C3F1, males, in feed, site: kidney cortex + thyroid gland, lesion: adenoma + follicular-cell adenoma, dosed 103 weeks, study length 104 weeks): 19500 mg/kg/day; TD50 (mouse, strain B6C3F1, males, in feed, site: kidney cortex, lesion: adenoma, dosed 103 weeks, study length 104 weeks): 35500 mg/kg/day; TD50 (mouse, strain B6C3F1, males, in feed, site: liver, lesion: hepatocellular adenoma + hepatocellular carcinoma + neoplastic nodule, dosed 103 weeks, study length 104 weeks): 17900 mg/kg/day; TD50 (mouse, strain B6C3F1, males, in feed, site: lung, lesion: alveolar/bronchiolar adenoma + alveolar/bronchiolar carcinoma, dosed 103 weeks, study length 104 weeks): 36900 mg/kg/day; TD50 (mouse, strain B6C3F1, males, in feed, site: thyroid gland, lesion: follicular-cell adenoma, dosed 103 weeks, study length 104 weeks): 38300 mg/kg/day; TD50 (rat, strain Fischer 344, females, in feed, site: liver, lesion: hepatocellular adenoma + hepatocellular carcinoma + neoplastic nodule, dosed 103 weeks, study length 104 weeks): 5240 mg/kg/day; TD50 (rat, strain Fischer 344, females, in feed, site: liver, lesion: hepatocellular adenoma, dosed 103 weeks, study length 104 weeks): 5240 mg/kg/day; TD50 (rat, strain Fischer 344, males, in feed, site: Zymbal's gland, lesion: carcinoma, dosed 103 weeks, study length 104 weeks): 9010 mg/kg/day; TD50 (rat, strain Fischer 344, males, in feed, site: adrenal medulla, lesion: pheochromocytoma, benign, dosed 103 weeks, study length 104 weeks): 674 mg/kg/day; TD50 (rat, strain Fischer 344, males, in feed, site: adrenal medulla, lesion: pheochromocytoma, malignant + pheochromocytoma, benign, dosed 103 weeks, study length 104 weeks): 661 mg/kg/day; TD50 (rat, strain Fischer 344, males, in feed, site: any site (literature study), lesion: several types, types named in the paper, dosed 103 weeks, study length 104 weeks): 906 mg/kg/day; TD50 (rat, strain Fischer 344, males, in feed, site: liver, lesion: hepatocellular adenoma + hepatocellular carcinoma + neoplastic nodule, dosed 103 weeks, study length 104 weeks): 5170 mg/kg/day; TD50 (rat, strain Fischer 344, males, in feed, site: skin, lesion: carcinoma + squamous-cell papilloma, dosed 103 weeks, study length 104 weeks): 3660 mg/kg/day; TD50 (rat, strain Fischer 344, males, in feed, site: skin, lesion: squamous-cell papilloma, dosed 103 weeks, study length 104 weeks): 2540 mg/kg/day

Q: What does the source list for ClC(Br)Br?
A: TD50 (mouse, strain B6C3F1, females, by gavage, site: liver, lesion: hepatocellular adenoma + hepatocellular carcinoma + neoplastic nodule, dosed 105 weeks, study length 106 weeks): 139 mg/kg/day; TD50 (mouse, strain B6C3F1, females, by gavage, site: liver, lesion: hepatocellular adenoma + hepatocellular carcinoma, dosed 105 weeks, study length 106 weeks): 139 mg/kg/day; TD50 (mouse, strain B6C3F1, females, by gavage, site: liver, lesion: hepatocellular adenoma, dosed 105 weeks, study length 106 weeks): 211 mg/kg/day; TD50 (mouse, strain B6C3F1, males, by gavage, site: any site (literature study), lesion: several types, types named in the paper, dosed 105 weeks, study length 106 weeks): 11.3 mg/kg/day; TD50 (mouse, strain B6C3F1, males, by gavage, site: liver, lesion: hepatocellular adenoma + hepatocellular carcinoma + neoplastic nodule, dosed 105 weeks, study length 106 weeks): 20.7 mg/kg/day; TD50 (mouse, strain B6C3F1, males, by gavage, site: liver, lesion: hepatocellular adenoma + hepatocellular carcinoma, dosed 105 weeks, study length 106 weeks): 20.7 mg/kg/day; TD50 (mouse, strain B6C3F1, males, by gavage, site: liver, lesion: hepatocellular carcinoma, dosed 105 weeks, study length 106 weeks): 33.5 mg/kg/day; TD50 (mouse, strain B6C3F1, males, by gavage, site: lung, lesion: alveolar/bronchiolar adenoma + alveolar/bronchiolar carcinoma, dosed 105 weeks, study length 106 weeks): 115 mg/kg/day; carcinogen call (rat, strain Fischer 344, females, by gavage, site: any site (literature study), lesion: several types, types named in the paper, dosed 104 weeks, study length 105 weeks): negative (inactive); TD50 (rat, strain Fischer 344, females, by gavage, site: liver, lesion: hepatocellular adenoma + hepatocellular carcinoma + neoplastic nodule, dosed 104 weeks, study length 105 weeks): 591 mg/kg/day; carcinogen call (rat, strain Fischer 344, males, by gavage, site: any site (literature study), lesion: several types, types named in the paper, dosed 104 weeks, study length 105 weeks): negative (inactive); TD50 (rat, strain Fischer 344, males, by gavage, site: liver, lesion: hepatocellular adenoma + hepatocellular carcinoma + neoplastic nodule, dosed 104 weeks, study length 105 weeks): 150 mg/kg/day

Q: Which results are given for Cn1nc(CO)nc1NCCCOc1cccc(CN2CCCCC2)c1?
A: TD50 (rat, strain Charles River CD (Sprague-Dawley), females, in feed, site: stomach, glandular, fundic region, lesion: carcinoid tumor, malignant, dosed 115 weeks, study length 115 weeks): 272 mg/kg/day; TD50 (rat, strain Charles River CD (Sprague-Dawley), males, in feed, site: stomach, glandular, fundic region, lesion: carcinoid tumor, malignant, dosed 115 weeks, study length 115 weeks): 2010 mg/kg/day

Q: Which TD50 (mouse, strain B6C3F1, females, in feed, site: any site (literature study), lesion: several types, types named in the paper, dosed 104 weeks, study length 106 weeks) does the source give for c1ccc2n[nH]nc2c1 here?
A: Its TD50 is 18900 mg/kg/day.

Q: And the TD50 (mouse, strain B6C3F1, females, in feed, site: lung, lesion: alveolar/bronchiolar adenoma + alveolar/bronchiolar carcinoma, dosed 104 weeks, study length 106 weeks)?
A: The TD50 was 3890 mg/kg/day.

Q: And the TD50 (mouse, strain B6C3F1, females, in feed, site: lung, lesion: alveolar/bronchiolar carcinoma, dosed 104 weeks, study length 106 weeks)?
A: The TD50 was 4390 mg/kg/day.

Q: And the carcinogen call (mouse, strain B6C3F1, males, in feed, site: any site (literature study), lesion: several types, types named in the paper, dosed 104 weeks, study length 106 weeks)?
A: The carcinogen call was “negative (inactive)”.

Q: What about the TD50 (rat, strain Fischer 344, females, in feed, site: brain, lesion: glioma, NOS, dosed 78 weeks, study length 105 weeks) of the same compound?
A: The TD50 was 20300 mg/kg/day.

Q: And the TD50 (rat, strain Fischer 344, females, in feed, site: liver, lesion: hepatocellular adenoma + hepatocellular carcinoma + neoplastic nodule, dosed 78 weeks, study length 105 weeks)?
A: The TD50 was 10100 mg/kg/day.

Q: And the carcinogen call (rat, strain Fischer 344, males, in feed, site: brain, lesion: glioma, NOS + oligodendroglioma, dosed 78 weeks, study length 104 weeks)?
A: Its carcinogen call is “a”.

Q: And the TD50 (rat, strain Fischer 344, males, in feed, site: liver, lesion: hepatocellular adenoma + hepatocellular carcinoma + neoplastic nodule, dosed 78 weeks, study length 104 weeks)?
A: The TD50 was 2720 mg/kg/day.

Q: And the TD50 (rat, strain Fischer 344, males, in feed, site: liver, lesion: neoplastic nodule, dosed 78 weeks, study length 104 weeks)?
A: The TD50 was 2720 mg/kg/day.

Q: With C=CN1CCCC1=O as the compound, how does the TD50 (rat, strain Charles River CD (Sprague-Dawley), females, inhaled, site: any site (literature study), lesion: malignant tumor, dosed 104 weeks, study length 104 weeks) read?
A: The TD50 was 6.12 mg/kg/day.

Q: What about the TD50 (rat, strain Charles River CD (Sprague-Dawley), females, inhaled, site: larynx, lesion: squamous-cell carcinoma, dosed 104 weeks, study length 104 weeks) of the same compound?
A: The TD50 was 120 mg/kg/day.

Q: And the TD50 (rat, strain Charles River CD (Sprague-Dawley), females, inhaled, site: liver, lesion: hepatocellular carcinoma, dosed 104 weeks, study length 104 weeks)?
A: The TD50 was 12.3 mg/kg/day.

Q: What about the TD50 (rat, strain Charles River CD (Sprague-Dawley), females, inhaled, site: nasal cavity, olfactory epithelium, lesion: adenocarcinoma, dosed 104 weeks, study length 104 weeks) of the same compound?
A: Its TD50 is 120 mg/kg/day.

Q: And the TD50 (rat, strain Charles River CD (Sprague-Dawley), females, inhaled, site: nasal cavity, respiratory epithelium, lesion: adenoma, dosed 52 weeks, study length 52 weeks)?
A: The TD50 was 19.8 mg/kg/day.

Q: And the TD50 (rat, strain Charles River CD (Sprague-Dawley), females, inhaled, site: nasal cavity, respiratory epithelium, lesion: adenoma, dosed 104 weeks, study length 104 weeks)?
A: Its TD50 is 20.4 mg/kg/day.

Q: What about the TD50 (rat, strain Charles River CD (Sprague-Dawley), males, inhaled, site: any site (literature study), lesion: malignant tumor, dosed 104 weeks, study length 104 weeks) of the same compound?
A: The TD50 was 5 mg/kg/day.

Q: And the TD50 (rat, strain Charles River CD (Sprague-Dawley), males, inhaled, site: any site (literature study), lesion: several types, types named in the paper, dosed 104 weeks, study length 104 weeks)?
A: The TD50 was 1.99 mg/kg/day.

Q: What about the TD50 (rat, strain Charles River CD (Sprague-Dawley), males, inhaled, site: larynx, lesion: squamous-cell carcinoma, dosed 104 weeks, study length 104 weeks) of the same compound?
A: The TD50 was 84 mg/kg/day.

Q: And the TD50 (rat, strain Charles River CD (Sprague-Dawley), males, inhaled, site: liver, lesion: hepatocellular carcinoma, dosed 104 weeks, study length 104 weeks)?
A: The TD50 was 12 mg/kg/day.

Q: And the TD50 (rat, strain Charles River CD (Sprague-Dawley), males, inhaled, site: nasal cavity, olfactory epithelium, lesion: adenocarcinoma, dosed 104 weeks, study length 104 weeks)?
A: Its TD50 is 32.9 mg/kg/day.

Q: What about the TD50 (rat, strain Charles River CD (Sprague-Dawley), males, inhaled, site: nasal cavity, respiratory epithelium, lesion: adenoma, dosed 52 weeks, study length 52 weeks) of the same compound?
A: The TD50 was 8.56 mg/kg/day.

Q: And the TD50 (rat, strain Charles River CD (Sprague-Dawley), males, inhaled, site: nasal cavity, respiratory epithelium, lesion: adenoma, dosed 104 weeks, study length 104 weeks)?
A: Its TD50 is 11.7 mg/kg/day.

Q: How did the carcinogen call (mouse, strain Swiss albino, females, in drinking water, site: liver, lesion: one or several types, types not named, dosed 134 weeks, study length 134 weeks) turn out when O=C(O)c1ccccc1 was run?
A: The carcinogen call was “negative (inactive)”.

Q: What about the carcinogen call (mouse, strain Swiss albino, females, in drinking water, site: lung, lesion: one or several types, types not named, dosed 134 weeks, study length 134 weeks) of the same compound?
A: The carcinogen call was “negative (inactive)”.

Q: What about the TD50 (mouse, strain Swiss albino, males, in drinking water, site: liver, lesion: hepatoma, dosed 113 weeks, study length 113 weeks) of the same compound?
A: The TD50 was 133000 mg/kg/day (inactive).

Q: And the carcinogen call (mouse, strain Swiss albino, males, in drinking water, site: lung, lesion: one or several types, types not named, dosed 113 weeks, study length 113 weeks)?
A: The carcinogen call was “negative (inactive)”.

Q: And the TD50 (rat, strain Fischer 344, females, in feed, site: any site (literature study), lesion: malignant tumor, dosed 104 weeks, study length 108 weeks)?
A: The TD50 was 104000 mg/kg/day (inactive).

Q: What about the TD50 (rat, strain Fischer 344, females, in feed, site: any site (literature study), lesion: several types, types named in the paper, dosed 104 weeks, study length 108 weeks) of the same compound?
A: The TD50 was 24900 mg/kg/day (inactive).

Q: What about the carcinogen call (rat, strain Fischer 344, males, in feed, site: any site (literature study), lesion: malignant tumor, dosed 104 weeks, study length 108 weeks) of the same compound?
A: The carcinogen call was “negative (inactive)”.

Q: And the carcinogen call (rat, strain Fischer 344, males, in feed, site: any site (literature study), lesion: several types, types named in the paper, dosed 104 weeks, study length 108 weeks)?
A: The carcinogen call was “negative (inactive)”.

Q: What does the source list for O=C(NCC1CCCCN1)c1cc(OCC(F)(F)F)ccc1OCC(F)(F)F (configuration not stated)?
A: carcinogen call (mouse, strain Charles River CD1, females, in feed, site: liver, lesion: adenoma, dosed 78 weeks, study length 78 weeks): negative (inactive); TD50 (mouse, strain Charles River CD1, females, in feed, site: lung, lesion: adenoma, dosed 78 weeks, study length 78 weeks): 938 mg/kg/day (inactive); carcinogen call (mouse, strain Charles River CD1, males, in feed, site: liver, lesion: adenoma, dosed 78 weeks, study length 78 weeks): negative (inactive); carcinogen call (mouse, strain Charles River CD1, males, in feed, site: liver, lesion: hepatocellular carcinoma, dosed 78 weeks, study length 78 weeks): negative (inactive); carcinogen call (mouse, strain Charles River CD1, males, in feed, site: lung, lesion: adenoma, dosed 78 weeks, study length 78 weeks): negative (inactive); carcinogen call (rat, strain Charles River Crl:COBS(WI)BR, females, in feed, site: liver, lesion: adenoma, dosed 104 weeks, study length 104 weeks): negative (inactive); TD50 (rat, strain Charles River Crl:COBS(WI)BR, males, in feed, site: liver, lesion: adenoma, dosed 104 weeks, study length 104 weeks): 3580 mg/kg/day (inactive); TD50 (rat, strain Charles River Crl:COBS(WI)BR, males, in feed, site: testis, lesion: interstitial-cell adenoma, dosed 104 weeks, study length 104 weeks): 79.1 mg/kg/day (inactive)
